Experimental data taken from PubChem BioAssay (NCI).
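Each compound was tested at five concentrations against cells in 96-well plates for 48 hours. GI50 marks 50% less growth. TGI: total growth inhibition.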

Key:
Assay in all cases: inhibition of tumour cell growth, NCI panel, 48 h
[1] = tested on: MALME-3M melanoma
[2] = tested on: M14 melanoma
[3] = tested on: PC-3 prostate
[4] = tested on: CCRF-CEM leukemia
[5] = tested on: EKVX NSCLC
[6] = tested on: SF-295 CNS
[7] = tested on: A498 renal
[8] = tested on: SK-MEL-28 melanoma
[9] = tested on: HS 578T breast
[10] = tested on: OVCAR-3 ovarian

SMILES | TGI [1] | TGI [2] | TGI [3] | TGI [4] | TGI [5] | TGI [6] | TGI [7] | TGI [8] | TGI [9] | TGI [10] | GI50 [1] | GI50 [2] | GI50 [3] | GI50 [4] | GI50 [5] | GI50 [6] | GI50 [7] | GI50 [8] | GI50 [9] | GI50 [10]
CCn1ncc2c(=O)n3ncn(-c4ccc(Br)cc4)c3nc21 | > 100 µM | > 100 µM | > 100 µM | > 100 µM | > 100 µM | > 100 µM | > 100 µM | > 100 µM | > 100 µM | > 100 µM |  |  |  |  |  |  |  |  |  | 
O=C([C@H](O)[C@@H](O)c1cccc(Cl)c1)C12CC3CC(CC(C3)C1)C2 | 18.2 µM | 7.16 µM | 4.05 µM | > 100 µM | 4.38 µM | 11.4 µM | 5.46 µM | 12.6 µM | 6.48 µM | 4.37 µM |  |  |  |  |  |  |  |  |  | 
O=C(c1ccc([N+](=O)[O-])cc1)N1CCCC1 | > 100 µM | > 100 µM | > 100 µM | > 100 µM | > 100 µM | > 100 µM | > 100 µM | > 100 µM | > 100 µM | > 100 µM |  |  |  |  |  |  |  |  |  | 
CCN(CC)C(=S)N/N=C(/c1ccccc1)c1ccccn1 | > 47.1 µM | 0.794 µM | > 100 µM | 1.09 µM | > 56.7 µM | 25.4 µM | 2.38 µM | > 79.7 µM | > 100 µM | 32.5 µM |  |  |  |  |  |  |  |  |  | 
CC(=O)Oc1ccc2c(-c3ccccc3)c(Oc3ccc(Cl)cc3)c(=O)oc2c1 | 28.9 µM | 37 µM | 37.7 µM | 35.7 µM | 29 µM | 32.4 µM | 30.8 µM | 31.6 µM | 43.8 µM | 28.8 µM |  |  |  |  |  |  |  |  |  | 
O=C1C=CC(=O)c2c(O)c(N3CCC[C@@H]3CO)c(Cl)c(O)c21 | 3.07 µM | 3.2 µM | 4.78 µM | 0.869 µM | 3.55 µM | 3.25 µM | 6.96 µM | 3.24 µM | 4.03 µM | 3.08 µM |  |  |  |  |  |  |  |  |  | 
C[C@H]1[C@H](C)CC[C@]2(C(=O)OC3OC(CO)C(O)C(O)C3O)CC[C@]3(C)C(=CC[C@@H]4[C@@]5(C)C[C@@H](O)[C@@H]6OC(=O)c7cc(O)c(O)c(O)c7-c7c(cc(O)c(O)c7O)C(=O)OC[C@@]6(CO)[C@@H]5CC[C@]43C)[C@H]12 (some centres undefined) | > 100 µM | > 100 µM | > 100 µM | 98.7 µM | > 100 µM | > 100 µM | > 100 µM | > 100 µM | > 100 µM | > 91.4 µM |  |  |  |  |  |  |  |  |  | 
CC1=C(C(=O)OCCO[N+](=O)[O-])C(c2ccccc2[N+](=O)[O-])C(C(=O)OC(C)C)=C(C)N1 (centres undefined) | 35.9 µM | 29.3 µM | 23.2 µM | > 100 µM | 53 µM | 34.1 µM | 46.2 µM | 30.4 µM | 41.2 µM | 27.9 µM |  |  |  |  |  |  |  |  |  | 
CN1c2ccccc2C2=C(c3ccccc3)CC[C@@H](C(=O)N3C4CC5CC[C@@]4(CS3(=O)=O)C5(C)C)[C@@H]21 (some centres undefined) | > 100 µM | > 100 µM | > 100 µM | > 100 µM | > 100 µM | > 100 µM | > 100 µM | > 100 µM | > 100 µM | > 100 µM |  |  |  |  |  |  |  |  |  | 
O=C1c2cc3c(cc2-c2c1c1ccc(Cl)cc1c(=O)n2CCCn1ccnc1)OCO3 | > 100 µM | 11.9 µM | > 100 µM | 10.5 µM | > 100 µM | 10 µM |  | > 100 µM | > 100 µM | 1.4 µM | 0.0647 µM | < 0.01 µM | 0.0438 µM | < 0.01 µM | 0.117 µM | < 0.01 µM | 0.025 µM | 0.158 µM | 1.54 µM | 0.0396 µM
CC1=C(C)SC(=C2Sc3c(n(C)c(=O)n(C)c3=O)S2)S1 | > 100 µM | > 100 µM | > 100 µM | > 100 µM | > 100 µM | > 100 µM | 79.4 µM | > 100 µM | > 100 µM | > 100 µM |  |  |  |  |  |  |  |  |  | 
CC1(C)OCC(C2OC(C)(C)OC2[C@H]2O[C@@]3(O)[C@H]4[C@H](C=CC[C@@H]42)[C@@H](OCc2ccccc2)[C@H](OCc2ccccc2)[C@H]3OCc2ccccc2)O1 (some centres undefined) | > 100 µM | > 100 µM | > 100 µM | > 100 µM | > 100 µM | > 100 µM | > 100 µM | > 100 µM | > 100 µM | > 100 µM |  |  |  |  |  |  |  |  |  | 
Cc1cc(-c2cc(C(C)(C)C)c(O)c(C(C)(C)C)c2)c(C)cc1-c1cc(C(C)(C)C)c(O)c(C(C)(C)C)c1 | > 100 µM | > 100 µM | > 100 µM | > 100 µM | > 100 µM | > 100 µM | 92.7 µM | > 100 µM | > 100 µM | > 100 µM |  |  |  |  |  |  |  |  |  | 
N#C/C(C(=O)NCc1ccccc1)=C(/N)N1CCCC1 | > 100 µM | > 100 µM | > 100 µM | > 100 µM | > 100 µM | > 100 µM | > 100 µM | > 100 µM | > 100 µM | > 100 µM |  |  |  |  |  |  |  |  |  | 
CCc1nc2c(c(N(C)C)c1C(=O)OC)CCc1ccccc1-2 | > 100 µM | 74.2 µM | 40 µM | 9.43 µM | > 100 µM | 50.9 µM | 75.3 µM | > 100 µM | > 100 µM | 35.4 µM |  |  |  |  |  |  |  |  |  | 
CCC1(CC)C(=O)N(C(=O)c2cc(OC)c(OC)c(OC)c2)N(C(=O)c2cc(OC)c(OC)c(OC)c2)C1=O | > 50 µM | > 50 µM | > 50 µM | > 50 µM | > 50 µM | > 50 µM | > 50 µM | > 50 µM | > 50 µM | > 50 µM |  |  |  |  |  |  |  |  |  | 
NCCCCNCCCN1CCOC1=O | > 100 µM | > 100 µM | > 100 µM | > 100 µM | > 100 µM | > 100 µM | > 100 µM | > 100 µM | > 100 µM | > 100 µM |  |  |  |  |  |  |  |  |  | 
